Laboratory results as given in patent publication US9499550B2 (BRISTOL-MYERS SQUIBB COMPANY, priority 2012, dated 2016).
Like-named read-outs stand apart in the source and are kept apart here.

How the values were obtained:
[1] = system: HCV genotype 1a (H77 strain) replicon in HUH-7 cells; test: HCV replicon luciferase reporter assay, genotype 1a; assay type: cell-based; conditions: 3 days incubation
How it was run: (§1)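 Replicon inhibition for both genotypes was measured as Renilla luciferase signal (EnduRen, 7.5 μM final, 2 h) after 3-day, 37° C exposure of replicon-bearing HUH-7 cells in 4% FCS DMEM, 0.5% DMSO. The 1b construct carries S1179I; the 1a H77 construct carries P1496L and S2204I. Twenty-point, 3-fold dilutions were fitted four-parametrically for EC50, and CC50 was taken from multiplexed Cell Titer-Blue.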

[2] = system: HCV genotype 1b (Con1) replicon in HUH-7 cells; test: HCV replicon luciferase reporter assay, genotype 1b; assay type: cell-based; conditions: 3 days incubation
How it was run: as §1

[3] = Hepatitis C virus, Huh-7, 72 h, HCV genotype 1a replicon luciferase, read-out: LE_1a (EC50, range)
[4] = Hepatitis C virus, Huh-7, 72 h, HCV genotype 1b replicon luciferase, read-out: LE_1b (EC50, range)
[5] = Hepatitis C virus, Huh-7, 72 h, HCV genotype 1a replicon luciferase assay, range class, read-out: LE_1a (EC50, range)
[6] = Hepatitis C virus, Huh-7, 72 h, HCV genotype 1b replicon luciferase assay, range class, read-out: LE_1b (EC50, range)

Row | Structure (SMILES) | EC50 [1, 3] | EC50 [2, 4] | EC50 [1, 5] | EC50 [2, 6] | also measured
1 | COc1cc2ccccc2c(O[C@@H]2C[C@H]3C(=O)N[C@]4(C(=O)NS(=O)(=O)C5(C)CC5)C[C@H]4/C=C\CC[C@@H](C)C[C@@H](C)[C@H](NC(=O)OC(C)(C)C)C(=O)N3C2)n1 [Compound 6009, tert-butyl ((2R,6S,7R,9R,13aS,14aR,16aS,Z)-2-((3-methoxyisoquinolin-1-yl)oxy)-7,9-dimethyl-14a-(((1-methylcyclopropyl)sulfonyl)carbamoyl)-5,16-dioxo-1,2,3,5,6,7,8,9,10,11,13a,14,14a,15,16,16a-hexadecahydrocyclopropa[e]pyrrolo[1,2-a][1,4]diazacyclopentadecin-6-yl)carbamate] | < 5.46 nM | < 5.46 nM | – | – | EC50 ([1]; Hepatitis C virus, Huh-7, 72 h, HCV genotype 1a replicon luciferase, read-out: LE_1a (EC50)): 1.12 nM; EC50 ([2]; Hepatitis C virus, Huh-7, 72 h, HCV genotype 1b replicon luciferase, read-out: LE_1b (EC50)): 0.3 nM
2 | COc1cc2c(OC)cnc(O[C@@H]3C[C@H]4C(=O)N[C@]5(C(=O)NS(=O)(=O)C6(CF)CC6)C[C@H]5/C=C\CC[C@@H](C)C[C@@H](C)[C@H](NC(=O)C(C)(C)C)C(=O)N4C3)c2cc1F [Compound 4116, (2R,6S,7R,9R,13aS,14aR,16aS,Z)-2-(7-fluoro-4,6-dimethoxyisoquinolin-1-yloxy)-N-(1-(fluoromethyl)cyclopropylsulfonyl)-7,9-dimethyl-5,16-dioxo-6-pivalamido-1,2,3,5,6,7,8,9,10,11,13a,14,14a,15,16,16a-hexadecahydrocyclopropa[e]pyrrolo[1,2-a][1,4]diazacyclopentadecine-14a-carboxamide] | < 5.46 nM | < 5.46 nM | – | – | –
3 | CC[C@@H]1C[C@@H](C)CC/C=C\[C@@H]2C[C@@]2(C(=O)NS(=O)(=O)C2(C)CC2)NC(=O)[C@@H]2C[C@@H](Oc3nccc4c5c(ccc34)OCCO5)CN2C(=O)[C@H]1NC(=O)OC(C)(C)C(F)(F)F [Compound 5333, 1,1,1-trifluoro-2-methylpropan-2-yl((2R,6S,7R,9S,13aS,14aR,16aS,Z)-2-((2,3-dihydro-[1,4]dioxino[2,3-f]isoquinolin-7-yl)oxy)-7-ethyl-9-methyl-14a-(((1-methylcyclopropyl)sulfonyl)carbamoyl)-5,16-dioxo-1,2,3,5,6,7,8,9,10,11,13a,14,14a,15,16,16a-hexadecahydrocyclopropa[e]pyrrolo[1,2-a][1,4]diazacyclopentadecin-6-yl)carbamate] | 4.82 to 103 nM | 4.82 to 103 nM | – | – | –
4 | C[C@@H]1CC/C=C\[C@@H]2C[C@@]2(C(=O)NS(=O)(=O)C2(C)CC2)NC(=O)[C@@H]2C[C@@H](Oc3ncc(OCC(F)F)c4ccccc34)CN2C(=O)[C@@H](NC(=O)OC(C)(C)C)[C@H](C)C1 [Compound 1026, tert-butyl ((2R,6S,7R,9R,13aS,14aR,16aS,Z)-2-((4-(2,2-difluoroethoxyl)isoquinolin-1-yl)oxy)-7,9-dimethyl-14a-(((1-methylcyclopropyl)sulfonyl)carbamoyl)-5,16-dioxo-1,2,3,5,6,7,8,9,10,11,13a,14,14a,15,16,16a-hexadecahydrocyclopropa[e]pyrrolo[1,2-a][1,4]diazacyclopentadecin-6-yl)carbamate] | – | – | < 5.46 nM | < 5.46 nM | –
5 | CC[C@@H]1C[C@@H](C)CC/C=C\[C@@H]2C[C@@]2(C(=O)NS(=O)(=O)C2CC2)NC(=O)[C@@H]2C[C@@H](Oc3nccc4c(OC)cccc34)CN2C(=O)[C@H]1NC(=O)OC(C)(C)C(F)(F)F [Compound 3031, 1,1,1-trifluoro-2-methylpropan-2-yl((2R,6S,7R,9S,13aS,14aR,16aS,Z)-14a-((cyclopropylsulfonyl)carbamoyl)-7-ethyl-2-((5-methoxyisoquinolin-1-yl)oxy)-9-methyl-5,16-dioxo-1,2,3,5,6,7,8,9,10,11,13a,14,14a,15,16,16a-hexadecahydrocyclopropa[e]pyrrolo[1,2-a][1,4]diazacyclopentadecin-6-yl)carbamate] | – | – | 4.82 to 103 nM | 4.82 to 103 nM | –
6 | COc1ccc2c(O[C@@H]3C[C@H]4C(=O)N[C@]5(C(=O)NS(=O)(=O)C6CC6)C[C@H]5/C=C\CC[C@@H](C)C[C@@H](C)[C@H](NC(=O)OC(C)(C)C(F)(F)F)C(=O)N4C3)nc(-c3ccc(OC(C)C)cn3)cc2c1 [Compound 5203, 1,1,1-trifluoro-2-methylpropan-2-yl((2R,6S,7R,9R,13aS,14aR,16aS,Z)-14a-((cyclopropylsulfonyl)carbamoyl)-2-((3-(5-isopropoxypyridin-2-yl)-6-methoxyisoquinolin-1-yl)oxy)-7,9-dimethyl-5,16-dioxo-1,2,3,5,6,7,8,9,10,11,13a,14,14a,15,16,16a-hexadecahydrocyclopropa[e]pyrrolo[1,2-a][1,4]diazacyclopentadecin-6-yl)carbamate] | < 5.46 nM | < 5.46 nM | – | – | –
7 | C[C@H]1CC/C=C\[C@@H]2C[C@@]2(C(=O)NS(=O)(=O)C2(CF)CC2)NC(=O)[C@@H]2C[C@@H](Oc3nc4c(c5ccccc35)OCCC4)CN2C(=O)[C@@H](NC(=O)OC(C)(C)C(C)(F)F)[C@H](C)C1 [Compound 6039, 3,3-difluoro-2-methylbutan-2-yl((2R,6S,7R,9S,13aS,14aR,16aS,Z)-2-((3,4-dihydro-2H-pyrano[3,2-c]isoquinolin-6-yl)oxy)-14a-(((1-(fluoromethyl)cyclopropyl)sulfonyl)carbamoyl)-7,9-dimethyl-5,16-dioxo-1,2,3,5,6,7,8,9,10,11,13a,14,14a,15,16,16a-hexadecahydrocyclopropa[e]pyrrolo[1,2-a][1,4]diazacyclopentadecin-6-yl)carbamate] | – | – | – | – | EC50 ([1]; HCV genotype 1a replicon luciferase, read-out: LE_1a (EC50, range)): 5.01 to 35 nM; EC50 ([2]; HCV genotype 1b replicon luciferase, read-out: LE_1b (EC50, range)): 5.01 to 35 nM
8 | COc1ccc2nc(OC)c(O[C@@H]3C[C@H]4C(=O)N[C@]5(C(=O)NS(=O)(=O)C6(C)CC6)C[C@H]5/C=C\CC[C@@H](C)C[C@@H](C)[C@H](NC(=O)OC(C)(C)C)C(=O)N4C3)cc2c1 [Compound 4373, tert-butyl ((2R,6S,7R,9R,13aS,14aR,16aS,Z)-2-((2,6-dimethoxyquinolin-3-yl)oxy)-7,9-dimethyl-14a-(((1-methylcyclopropyl)sulfonyl)carbamoyl)-5,16-dioxo-1,2,3,5,6,7,8,9,10,11,13a,14,14a,15,16,16a-hexadecahydrocyclopropa[e]pyrrolo[1,2-a][1,4]diazacyclopentadecin-6-yl)carbamate] | 0.1 to 0.5 nM | 0.1 to 0.5 nM | – | – | –
9 | CCC(C)(C)OC(=O)N[C@@H]1C(=O)N2C[C@H](Oc3ncc(OC)c4ccccc34)C[C@H]2C(=O)N[C@]2(C(=O)NS(=O)(=O)C3(CF)CC3)C[C@H]2/C=C\CC[C@@H](C)C[C@H]1C [Compound 1044, tert-pentyl ((2R,6S,7R,9R,13aS,14aR,16aS,Z)-14a-(((1-(fluoromethyl)cyclopropyl)sulfonyl)carbamoyl)-2-((4-methoxyisoquinolin-1-yl)oxy)-7,9-dimethyl-5,16-dioxo-1,2,3,5,6,7,8,9,10,11,13a,14,14a,15,16,16a-hexadecahydrocyclopropa[e]pyrrolo[1,2-a][1,4]diazacyclopentadecin-6-yl)carbamate] | – | – | < 5.46 nM | < 5.46 nM | –
10 | CC(C)Oc1cc2c(Cl)cccc2c(O[C@@H]2C[C@H]3C(=O)N[C@]4(C(=O)NS(=O)(=O)C5(C)CC5)C[C@H]4/C=C\CC[C@@H](C)C[C@@H](C)[C@H](NC(=O)OC(C)(C)C)C(=O)N3C2)n1 [Compound 1090, tert-butyl ((2R,6S,7R,9R,13aS,14aR,16aS,Z)-2-((5-chloro-3-isopropoxyisoquinolin-1-yl)oxy)-7,9-dimethyl-14a-(((1-methylcyclopropyl)sulfonyl)carbamoyl)-5,16-dioxo-1,2,3,5,6,7,8,9,10,11,13a,14,14a,15,16,16a-hexadecahydrocyclopropa[e]pyrrolo[1,2-a][1,4]diazacyclopentadecin-6-yl)carbamate] | – | – | < 5.46 nM | < 5.46 nM | –
11 | CC[C@@H]1C[C@H](C)CC/C=C\[C@@H]2C[C@@]2(C(=O)NS(=O)(=O)C2CC2)NC(=O)[C@@H]2C[C@@H](Oc3nccc4c5c(ccc34)N(C)CCO5)CN2C(=O)[C@H]1NC(=O)NC(C)(C)C [Compound 5316, (2R,6S,7R,9R,13aS,14aR,16aS,Z)-6-(3-(tert-butyl)ureido)-N-(cyclopropylsulfonyl)-7-ethyl-9-methyl-2-((4-methyl-3,4-dihydro-2H-[1,4]oxazino[2,3-f]isoquinolin-7-yl)oxy)-5,16-dioxo-1,2,3,5,6,7,8,9,10,11,13a,14,14a,15,16,16a-hexadecahydrocyclopropa[e]pyrrolo[1,2-a][1,4]diazacyclopentadecine-14a-carboxamide] | < 5.46 nM | < 5.46 nM | – | – | –
12 | COc1cnc(O[C@@H]2C[C@H]3C(=O)N[C@]4(C(=O)NS(=O)(=O)C5CC5)C[C@H]4/C=C\CC[C@H](C)C[C@@H](C)[C@H](NC(=O)OC(C)(C)C)C(=O)N3C2)c2cc(Cl)ccc12 [Compound 1208, tert-butyl ((2R,6S,7R,9S,13aS,14aR,16aS,Z)-2-((7-chloro-4-methoxyisoquinolin-1-yl)oxy)-14a-((cyclopropylsulfonyl)carbamoyl)-7,9-dimethyl-5,16-dioxo-1,2,3,5,6,7,8,9,10,11,13a,14,14a,15,16,16a-hexadecahydrocyclopropa[e]pyrrolo[1,2-a][1,4]diazacyclopentadecin-6-yl)carbamate] | 5.01 to 35 nM | 1.01 to 5 nM | – | – | –
